This passage reports Emax and ED50 results from patent US4145442A, “Phenoxy-hydroxypropylamines, their preparation, and method and pharmaceutical preparations for treating cardiovascular diseases” (priority 1972, dated 1979).

Like-named read-outs stand apart in the source and are kept apart here.

Holding throughout (format): in vivo
Assay [1] deals with T1, β-receptors of the heart (Felis catus, UniProt Q9TST6).
T1 construct: from tissue; host or cells: heart of the anesthetized, reserpine-pretreated, vagotomized cat (in vivo)
As to the kind of experiment: Intrinsic activity on heart rate in reserpinized cat. As to conditions: iv, anesthetized, vagotomized, i.v., read-out: Intrinsic activity % of maximal isoprenaline heart rate. The protocol: (§1) Compounds prepared according to the examples were evaluated for intrinsic activity and blocking effect on heart rate and peripheral vasodilator response to isoprenaline in the cat. Alprenolol was used as a reference source.
(§2) Cats weighing between 1.8 and 2.8 kg were anesthetized with 39 mg/kg pentobarbital sodium, intraperitoneally. The cat had been pre-treated with reserpine, 5 mg/kg intramuscular, about 18 hours before the experiment. Bilateral vagotomy was performed before the start of the experiment.
(§3) The heart rate was recorded on an Offner cardiotachometer triggered by the EKG-complex. Mean arterial blood pressure was recorded from a carotid artery. The peripheral resistance was measured in one of the legs of the cat in the following way: The femoral artery was opened in the inguinal region and the leg was perfused by blood delivered through a sigma motor pump at constant rate. The flow resistance (the pressure) was recorded via pressure transducer connected to the catheter distally to the pump. The paw was excluded from the circulation by a tight ligature. Intravenously injected isoprenaline increased the heart rate and reduced the perfusion pressure. An isoprenaline dose giving 70-80% of the maximal chronotropic response was determined. This dose (usually 0.1 μg/kg) was then repeated with 20-minute intervals. Ten minutes before each isoprenaline injection, the tested substances were administered intravenously for two minutes, starting with a dose of 0.01 mg/kg and increasing each subsequent dose fourfold. The intrinsic effects of the test substances were determined. The dose producing 50% blockade of the isoprenaline responses was evaluated from the plotted log dose percent blockade diagrams.

Assay [2] deals with T1, β-receptors of the heart. The experiment in a line: β-blockade of isoprenaline heart rate response in reserpinized cat. Conditions: iv, read-out: β-blockade heart rate ED50. The protocol:
as §1, §2, §3

Assay [3] addresses T2, β2-receptors of the smooth muscles (Felis catus, UniProt Q9TST5).
T2 construct: from tissue; host or cells: vascular bed of the blood-perfused leg of the anesthetized cat, paw excluded (in vivo)
As to the kind of experiment: β-blockade of isoprenaline peripheral vasodilator response (peripheral vascular resistance) in reserpinized cat. As to conditions: iv, 50% blockade of isoprenaline (usually 0.1 μg/kg) response. As for the experimental part: as §1, §2, §3

Setting [4] is: reserpinized cat, i.v., 50% blockade of isoprenaline (usually 0.1 μg/kg) response.

T2 sequence (Q9TST5 whole entry, the tested form may be a part): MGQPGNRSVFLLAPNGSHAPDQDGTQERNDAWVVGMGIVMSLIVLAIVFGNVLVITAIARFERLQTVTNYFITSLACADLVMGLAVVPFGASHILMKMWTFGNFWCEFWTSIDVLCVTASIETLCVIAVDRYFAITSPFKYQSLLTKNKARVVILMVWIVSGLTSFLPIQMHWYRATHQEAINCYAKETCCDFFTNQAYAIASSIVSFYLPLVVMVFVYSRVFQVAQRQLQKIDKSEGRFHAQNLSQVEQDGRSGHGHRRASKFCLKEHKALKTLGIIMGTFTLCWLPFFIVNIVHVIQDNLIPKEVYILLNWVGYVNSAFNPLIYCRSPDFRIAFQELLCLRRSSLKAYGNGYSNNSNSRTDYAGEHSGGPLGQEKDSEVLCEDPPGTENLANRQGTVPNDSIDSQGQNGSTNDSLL
T1 sequence (Q9TST6 whole entry): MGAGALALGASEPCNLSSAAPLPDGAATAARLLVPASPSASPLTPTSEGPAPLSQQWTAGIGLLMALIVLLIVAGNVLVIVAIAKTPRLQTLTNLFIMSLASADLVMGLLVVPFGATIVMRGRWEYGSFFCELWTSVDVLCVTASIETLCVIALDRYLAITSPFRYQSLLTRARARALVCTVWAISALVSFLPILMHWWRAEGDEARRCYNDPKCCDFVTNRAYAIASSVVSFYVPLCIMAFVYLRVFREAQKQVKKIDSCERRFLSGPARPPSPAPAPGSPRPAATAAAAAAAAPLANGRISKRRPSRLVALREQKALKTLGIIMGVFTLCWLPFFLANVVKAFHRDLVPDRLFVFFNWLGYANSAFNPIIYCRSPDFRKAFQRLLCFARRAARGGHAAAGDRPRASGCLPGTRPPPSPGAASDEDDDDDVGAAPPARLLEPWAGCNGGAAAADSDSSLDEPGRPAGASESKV

Turning to `COCCc1ccc(OCC(O)CNC(C)C)c(Br)c1` (stereo not drawn) [Example 1, 1-isopropylamino-3-[2'-bromo-4'-(β-methoxyethyl)-phenoxy]-propanol-2], the Emax on β-receptors of the heart [1] worked out at 0%. Further, the ED50 (usually the dose that gives a 50% effect, or the effect in half of the subjects) on β-receptors of the heart [2] (setting [4]) worked out at 0.03 mg/kg; in assay [3] it was 1 mg/kg.

As for `COCCc1ccc(OCC(O)CNC(C)C)c(Cl)c1` (stereo not drawn) [Example 2, 1-isopropylamino-3-[2'-chloro-4'-(2-methoxyethyl)phenoxy]-propanol-2], the Emax on β-receptors of the heart [1] amounted to 0%. Besides, the ED50 on β-receptors of the heart [2] (setting [4]) was found to be 0.1 mg/kg; in assay [3], 3 mg/kg.

As for `COCCc1ccc(OCC(O)CNC(C)(C)C)c(Cl)c1` (stereo not drawn) [Example 3], the Emax on β-receptors of the heart [1] was determined as 0%. The values for the ED50 (at β-receptors of the heart [2] (setting [4]); in assay [3]) were 0.03 mg/kg and 1 mg/kg, respectively.

As for `COCCc1ccc(OCC(O)CNC(C)C)c(COC)c1` (stereo not drawn) [Example 4, 1-isopropylamino-3-[2'-methoxymethyl-4'-(2-methoxyethyl)phenoxy]-propanol-2], the Emax at β-receptors of the heart [1] turned out to be 5%. The figures for the ED50 (at β-receptors of the heart [2] (setting [4]); in assay [3]) were 0.2 mg/kg and 5 mg/kg, respectively.

For the molecule `COCCCc1ccc(OCC(O)CNC(C)C)c(Cl)c1` (stereo not drawn) [Example 5, 1-isopropylamino-3-[2'-chloro-4'-(3-methoxy-n-propyl)phenoxy]-propanol-2], the Emax at β-receptors of the heart [1] amounted to 0%. Further, the ED50 was determined as 0.3 mg/kg at β-receptors of the heart [2] (setting [4]) and 2 mg/kg in assay [3].

On to `COCCCc1ccc(OCC(O)CNC(C)C)c(Br)c1` (stereo not drawn) [Example 6, 1-isopropylamino-3-[2'-bromo-4'-(3-methoxypropyl)phenoxy]-propanol-2], for which, at β-receptors of the heart [1], the Emax is 0%. Further, the ED50 was 0.4 mg/kg at β-receptors of the heart [2] (cat) and 1.5 mg/kg in assay [3].

As to `COCc1ccc(OCC(O)CNC(C)C)c(OC)c1` (stereo not drawn) [Example 7, 1-isopropyalmino-3-[2'-methoxymethylphenoxy]-propanol-2], the Emax on β-receptors of the heart [1] was 1%. In addition, the results for the ED50 (on β-receptors of the heart [2] (setting [4]); in assay [3]) were 0.6 mg/kg and 3 mg/kg, respectively.

For the molecule `C=CCc1cc(CCOC)ccc1OCC(O)CNC(C)C` (stereo not drawn) [Example 8, 1-isopropylamino-3-[2'-allyl-4'-(2-methoxyethyl)-phenoxyl]propanol-2], the Emax on β-receptors of the heart [1] was 0%. Further, the ED50 turned out to be 0.1 mg/kg at β-receptors of the heart [2] (setting [4]) and 0.8 mg/kg in assay [3].

Consider `CCCc1cc(CCOC)ccc1OCC(O)CNC(C)C` (stereo not drawn) [Example 9, 1-isopropylamino-3-[2'-propyl-4'-(2-methoxyethyl)phenoxy]-propanol-2], for which the Emax at β-receptors of the heart [1] was 0%. Besides, the 50% effective dose (ED50) on β-receptors of the heart [2] (setting [4]) was found to be 0.1 mg/kg; in assay [3], 0.5 mg/kg.

Take `C=CCc1cc(CCCOC)ccc1OCC(O)CNC(C)C` (stereo not drawn) [Example 10, 1-isopropylamino-3-[2'-allyl-4'-(3-methoxy-n-propyl)phenoxy]-propanol-2]: the Emax at β-receptors of the heart [1] came out at 0%. Also, the ED50 is 0.3 mg/kg on β-receptors of the heart [2] (setting [4]) and 1 mg/kg in assay [3].

For `CSCCc1ccc(OCC(O)CNC(C)C)c(F)c1` (stereo not drawn) [Example 11, 1-isopropylamino-3-[2'-fluoro-4'-(2-methylmercaptoethyl)phenoxy]-propanol-2xHCl], the Emax at β-receptors of the heart [1] is 0%. Also, the ED50 on β-receptors of the heart [2] (setting [4]) is 0.2 mg/kg; in assay [3], 1 mg/kg.

In the case of `COCCCc1ccc(OCC(O)CNC(C)C)c(OC)c1` (stereo not drawn) [Example 12, 1-isopropylamino-3-[2'-methoxy-4'-(3-methoxy-n-propyl)phenoxy]-propanol-2xHCl], on β-receptors of the heart [1], the Emax was determined as 0%. Also, the median effective dose (ED50) on β-receptors of the heart [2] (cat) is 0.4 mg/kg; in assay [3] it was 5 mg/kg.

In the case of `COCCc1ccc(OCC(O)CNC(C)C)c(F)c1` (stereo not drawn) [Example 13, 1-isopropylamino-3-[2'-fluoro-4'-(2-methoxyethyl)phenoxy]-propanol-2xHCl], the Emax on β-receptors of the heart [1] was 0%. For the same molecule, the values for the ED50 (at β-receptors of the heart [2] (setting [4]); in assay [3]) were 0.05 mg/kg and 2.7 mg/kg, respectively.
